A short description of data set [1]: in vivo. Set-up: species or system mice. The note with it: BALB/c, mouse, iv, 0.1 mg/kg body weight, total radioactivity. The procedure:
Biodistribution studies were also performed on tumor bearing BALB/c mice. 0.1 mg/Kg body weight ^68Ga-DT(GSHMe)2 (~25 ± 1.5 MBq) was injected through tail vein and at different time points viz., 30 min, 1 and 2 h animals were sacrificed and organs were dissected out. Uptake of radioactivity in individual organ is noted and %ID/g is then calculated.

The test system of data set [2] is athymic mice bearing BMG-1 tumors. The experiment in a line: Micro PET/CT small animal imaging with ROI analysis. Format: in vivo. To be noted: blocking dose ~5 mg/Kg native GSH, PET 2 h post injection, BMG-1 tumor. The procedure: Athymic male mice were xenografted with BMG-1 human tumor cell line (0.1 mL of cell suspension containing ~5 ×10^6 BMG cells) in the flank region of the hind limb. BALB/c mice were inoculated with EAT murine tumor cells (5–6 × 10^6) in the flank region of the right hind limb. An inflammation lesion was induced in the fore limb by intramuscular injection of turpentine oil (100 μL) 48 h before imaging. For Scintigraphy, (n = 6) mice used for imaging, biodistribution studies (n = 32 mice) for two experiments 4 mice/group for 4 time points and blood kinetics (n = 18).
Xenografted experimental models were intravenously administered 0.1mg/Kg body weight ^68Ga-DT(GSHMe)2 (37 ± 2.2 MBq) and 0.25 mg/Kg Body weight ^99mTc-DT(GSHMe)2 (29.6 ± 1.8 MBq) via tail vein for PET and SPECT respectively. Blocking dose of ~ 5 mg/Kg body weight of GSH was administered intravenously in the experimental animal. The acquisition was performed 2 h post injection. The ratios were calculated from counts per pixel of individual ROI (Region of interest) for semi-quantitative analysis to understand the distribution and localization.

Data set [3] is described as follows: Log P calculation (octanol/PBS partition). To be noted: shake-flask 1-octanol/PBS pH 7.4, equal volumes, vortexed 10 min, centrifuged 5000 rpm 5 min, gamma counter, repeated thrice; read-out: Log P. Format: physicochemical. The procedure:
The value of partition coefficient of radiolabeled […] calculated and expressed as log P. The radiolabeled […] passed through 0.22 μ filter and approximately 10.2 ± 1.5 MBq of labeled compound was diluted in PBS, pH 7.4. To this equal volume of 1-octanol was added. The mixture was thoroughly vortexed for 10 min and then centrifuged at 5000 rpm for 5 min. […] The measurement was repeated thrice. The partition coefficient (P) was calculated using the following equation wherein, P = (counts in octanol fraction) / (counts in PBS fraction). For each value of P, log P value is calculated.

For data set [4], the system named is cell lines. The experiment in a line: MTT assay (cytotoxicity). It counts as cell-based. The procedure: To confirm the results from SRB assay, MTT assay which measures cell metabolic activity was performed to correlate the results obtained using SRB assay. Exponentially growing cells were plated in a 96 well microtitre plate at a cell density of 4000 cells per well 24 h before treatment. Cells were treated with varying concentrations of the drug for different time intervals (24, 48, and 72 h). At the end of treatment, both the treated cells and untreated control were incubated with MTT at final concentration of 0.1mg/mL for 3 h at 37°C and the medium was removed thereafter. Cells from each treatment were lysed and the formazan crystals were dissolved using 150 μL of DMSO for 30 min. Optical density of extracts at 570 nm was measured (reference filter: 630 nm). Surviving fraction was determined and was plotted against concentration as a function of time.
(Tetrazolium dyes change colour on reduction, which living cells bring about.)

For data set [5], the system named is cell lines. The experiment in a line: Sulfo rhodamine B (SRB) assay (cytotoxicity). It counts as cell-based. As for the experimental part: SRB assay was performed to estimate the cytotoxicity of DT(GSHMe)2. SRB binds to total protein content of the cells and is independent of metabolic activity. Cells were seeded at the density of 6000 cells per well in 96 well microtiter plate. Cells were treated with varying concentration of DT(GSHMe)2 from 0.001 μM-1000 μM for different time intervals (24, 48 and 72 h). At each time point, 100 μL of ice cold 10% (wt/vol) trichloroacetic acid (TCA) was added to each well and were incubated for 1 h at 4°C followed by washing the plate four times under running tap water. Plates were then air dried and 100 μL of 0.057% SRB solution was added in each well for 30 min. Plates were quickly rinsed four times with 1% (v/v) acetic acid and air dried. To develop color, 200 μL of 10 mM Tris base solution (pH 10.5) was added to each well and kept on gyratory shaker for 5 min. The color intensity was measured fluorometrically at excitation 488 nm and emission at 585 nm. Surviving fraction was calculated and plotted for the concentration range 0.001 μM-1000 μM as a function of time.

In data set [6] the test system is BMG-1 cells. Kind of data set: Cell cycle analysis by flow cytometry (PI). Format: cell-based, human. The procedure:
10^5 cells per well were plated in a Petri dishes and kept in the incubator overnight at 37°C. Following day, cells were treated with different drug concentrations (0.01 μM –1000 μM). At specific time points, media was carefully removed and cells were harvested in micro centrifuge tubes. Cells were centrifuged at 1200 rpm for 6 min. Supernatant was removed and 700 μL of 80% cold ethanol was added drop wise. Pellet was uniformly dispersed and samples were stored at 4°C for at least 24 h. Samples were centrifuged to remove supernatant and RNAse at a final concentration of 0.5 mg/mL was added to the pellet and incubated at 37°C for 1 h. Finally Propidium Iodide (PI) solution at a final concentration of 10μg/mL was added and the samples were analyzed by flow cytometry.
In general terms: In flow cytometry, cells or beads pass a laser one at a time.

A short description of data set [7]: In vivo total glutathione estimation from tumor, RBC and plasma. Set-up: species or system BALB/c mice bearing EA tumors. The note with it: n = 3. As for the experimental part:
Levels of total Glutathione (GSH/GSSG) were estimated from tumor, RBC and plasma isolated from BALB/c mice bearing EA tumors, after injection of unlabeled 100 μM DT(GSHMe)2 (100 μL). At time points (15 min, 30 min, 1, 2and 4 h), blood samples were withdrawn and tumors were excised. Tumors were homogenized in 3 volumes of 5% sulfosalicylic acid (SSA) and centrifuged at 10,000 x g for 10 min at 4°C. Blood was centrifuged and the plasma fraction was separated from RBC pellet. To each RBC and plasma fractions, equal volume of 5% SSA was added, followed by vortexing and centrifugation at 10,000 x g for 10 min at 4°C. Supernatant was collected and used for estimating total glutathione levels.

[8] abbreviates: 0.25 h after injection of 100 μM unlabeled compound.

Take `CCOC(=O)CNC(=O)[C@H](CS)NC(=O)CC[C@H](NC(=O)CN(CCN(CCN(CC(=O)O)CC(=O)N[C@@H](CCC(=O)N[C@@H](CS)C(=O)NCC(=O)OCC)C(=O)O)CC(=O)O)CC(=O)O)C(=O)O` [68Ga-DT(GSHMe)2, metal not drawn]: in data set [1], the tissue to tissue ratio at 2 h turned out to be 26.4. Also, the “block of uptake at tumor site by GSH” value in data set [2] turned out to be 95.57%.

Turning to `N[C@@H](CCC(=O)N[C@@H](CS)C(=O)NCC(=O)O)C(=O)O` [glutathione, Glutathione, reference compound], the logD in data set [3] was -3.23 ± 0.141.

The term IC50 denotes the concentration needed to halve the response being measured. Regarding `CCOC(=O)CNC(=O)[C@H](CS)NC(=O)CC[C@H](NC(=O)CN(CCN(CCN(CC(=O)O)CC(=O)N[C@@H](CCC(=O)N[C@@H](CS)C(=O)NCC(=O)OCC)C(=O)O)CC(=O)O)CC(=O)O)C(=O)O` [DT(GSHMe)2, Diethylene triaminpentaacetic acid bis glutathione monoethylester], the “toxicity on cell lines” value in data set [4] (100 μM concentration, in vitro evaluations on cell lines) is “minimal toxicity”. The “toxicity” value is reported as “nontoxic” in data set [4] (MTT, lower concentration (below 100 μM), 24-72 h) and “nontoxic” in data set [5] (lower concentration (below 100 μM)). Further, in data set [5] (1000 μM, 72 h), the “cell population remained viable” value came out at 11.57 ± 3.84%. Moreover, the IC50 in data set [5] (cell line not stated, read-out: IC50 (nearly 50% cell lysis)) is about 500 µM. Also, the G1 cell population came to 83.2 ± 4.16% in data set [6] (BMG-1, 1 μM, 24 h) and 49.5 ± 2.47% in data set [6] (BMG-1, 1000 μM, 24 h). Also, the “increase of apoptotic cells versus control” value in data set [6] (BMG-1, 1000 μM, 24 h) is reported as “approximately 14 folds”. Further, the apoptotic cells in data set [6] (BMG-1, 1000 μM, 24 h treatment) was determined as 23.4 ± 1.17%. The Plasma total glutathione in data set [7] (setting [8]) is on record as 0.13 ± 0.029 μmoles of GSH/ml; in data set [7] (0.5 h after injection), 0.16 ± 0.028 μmoles of GSH/ml; in data set [7] (1 h after injection) it was 0.28 ± 0.127 μmoles of GSH/ml; in data set [7] (2 h after injection) it was 0.32 ± 0.155 μmoles of GSH/ml; in data set [7] (4 h after injection), 0.23 ± 0.041 μmoles of GSH/ml. Besides, the RBC total glutathione in data set [7] (setting [8]) is 0.38 ± 0.021 μmoles of GSH/ml; in data set [7] (0.5 h after injection) it was 0.39 ± 0.026 μmoles of GSH/ml; in data set [7] (1 h after injection), 0.45 ± 0.010 μmoles of GSH/ml; in data set [7] (2 h after injection) it was 0.5 ± 0.11 μmoles of GSH/ml; in data set [7] (4 h after injection) it was 0.39 ± 0.001 μmoles of GSH/ml. In addition, the Tumor total glutathione is on record as 3 ± 0.007 μmoles of GSH/g tissue weight in data set [7] (setting [8]); 4.3 ± 0.019 μmoles of GSH/g tissue weight in data set [7] (0.5 h after injection); 4.5 ± 0.070 μmoles of GSH/g tissue weight in data set [7] (1 h after injection); 4.9 ± 0.010 μmoles of GSH/g tissue weight in data set [7] (2 h after injection); 4.1 ± 0.010 μmoles of GSH/g tissue weight in data set [7] (4 h after injection).

(Values after paper PMC4519333, “Preclinical Evaluation of a Potential GSH Ester Based PET/SPECT Imaging Probe DT(GSHMe)2 to Detect Gamma Glutamyl Transferase Over Expressing Tumors” (PLoS ONE, 2015).)
